The values below come from patent US10035806B2, “Derivatized corroles and metallocorroles and their use as imaging and therapeutic agents” (CALIFORNIA INSTITUTE OF TECHNOLOGY, priority 2015, dated 2018).

The structures appear in SMILES notation.

One data set in a line: solubility in water. The class given is physicochemical.
For data set [1], the system named is 60 human tumor cell lines (NCI60). Description: NCI60 anticancer drug screen, whole panel. It counts as cell-based. As to conditions: 10 μM, 48 h. From the text: The aminocaproate-substituted corrole Complex 3 was submitted to NCI for cytotoxic screening at a single high dose (10−5M) in a panel of 60 human tumor cell lines (NCI60). Details of the cytotoxicity assessment in the NCI anticancer drug screen have been described previously, in Monks A, et al. (1991) Feasibility of a high-flux anticancer drug screen using a diverse panel of cultured human tumor cell lines. J Natl Cancer Inst 83(11):757-766, this reference being incorporated by reference for these teachings.
In view of the promising results observed for carboxylated corroles, Complex 3 was selected for expanded cell screening to uncover additional susceptible cancer cell lines. The cytotoxic activity of Complex 3 was tested at a dose of 10^−5 M against 60 human cancer cell lines representing nine distinct tumor types in the anticancer screening program of the National Cancer Institute (NCI). The in vitro parameters for cytotoxicity, growth percent, and lethality were obtained for Complex 3 and reported as a mean graph of the percent growth of treated cells (FIG. 7). Bars in the mean graph depict the deviation of individual tumor cell lines from the overall mean value for all cells tested. Bars that project to the right of the mean represent cell lines that are more sensitive to Complex 3, whereas cell lines less sensitive to the compound display bars that project to the left. […]

Data set [2] relates to DU-145, SK-MEL-28, MDA-MB-231, OVCAR-3. Description: Uptake of gallium corroles (ImageXpress confocal), cell lines taken together. It counts as cell-based, human. As to conditions: 30 μM, 37° C., dark. On the procedure:
The intracellular uptake of gallium corroles was quantified using the ImageXpressultra laser point-scanning confocal microscope (Molecular Devices). The fluorescence image acquisition settings were as previously reported (Lim P, et al. (2012), Chem Res Toxicol 25(2):400-409.). Cells (DU-145, SK-MEL-28, MDA-MB-231, and OVCAR-3) were seeded in 96-well dishes (8×10^3 cells per well in 0.1 mL) and allowed to attach overnight. Complex 1, 2, 3, or 4 was added directly to cell media at 30 μM final concentration or media only control, and incubated for 0.25, 1, 3, or 24 h at 37° C. in the dark under a 5% CO2 atmosphere. Cells were fixed and labeled in situ with WGA-Alexa Fluor 488 conjugate and DAPI to allow for the identification of cell boundary and nucleus, respectively. The quantification of blue (DAPI) fluorescence signals in each sample yielded the total number of cells in that population. Corresponding determination of red (corrole) fluorescence within each cell, corrected for background fluorescence from untreated cells, provided the number of cells containing corroles. For each corrole concentration at various time points, fluorescence data were obtained for 1,000-22,000 individual cells. Data acquisitions and analyses were performed as described (Lim P, et al. (2012), Chem Res Toxicol 25(2):400-409). The percentage of corrole-positive cells and the median fluorescence intensity (median RFU) for each treatment were plotted in a three-axis graph using Microsoft Office Excel 2007 (Microsoft Corporation).
To quantify the kinetics of intracellular uptake and accumulation of each derivative, ImageXpressultra, a laser point-scanning confocal microscope, was used for analyses. […] Cells were incubated at 37° C. in the dark for 0.25, 1, 3, or 24 h. […] Within 15 min, Complex 4 fluorescence was observable in ˜80% of ovarian cancer cells, 97% of breast cancer cells, and >99% of prostate cancer and melanoma cells, whereas up to 3 and 24 h were required to label >80% of cells from all four cancer lines with Complexes 3 and 2, respectively. […]

For data set [3] the test system is unchanged. Put plainly: MTS assay, all four cell lines taken together. It counts as cell-based, human. Conditions: Table 1 comparison, 72 h. The source says: Reagents were obtained from the indicated suppliers: HBSS without phenol red and trypsin-EDTA (0.25%), Invitrogen/Gibco; PBS, Mediatech; 4′,6-diamidino-2-phenylindole dihydrochloride (DAPI) and DMSO, Sigma-Aldrich; paraformaldehyde, Electron Microscopy Sciences; WGA, Alexa Fluor 488 conjugate, Invitrogen/Molecular Probes; and ProLong Gold Antifade Mountant with DAPI, Life Technologies. Human Cancer Cell Lines. Four cell lines from the NCI60 cell panel (Shoemaker RH (2006) The NCI60 human tumour cell line anticancer drug screen. Nat Rev Cancer 6(10):813-823) representing four distinct tumor types were used in this study: DU-145, prostate; MDA-MB-231, breast; SK-MEL-28, melanoma; and OVCAR-3, ovarian. […]
At the time of drug treatment, stock solutions of 1-4 were diluted to 10-fold the desired final test concentrations with RPMI medium 1640. […] Following 72 h of exposure at 37° C., cell viability was determined using the MTS assay (CellTiter 96 Aqueous One Cell Proliferation Assay; Promega) according to the manufacturer's instructions. Absorbances were measured using a microplate reader (Synergy 4; Biotek Instruments) at 490 nm. […] Spectrophotometric data were analyzed by sigmoid dose-response, nonlinear regression analysis; the IC50, Emax values, and associated SE were calculated using GraphPad Prism 6 (GraphPad Software). […]
For orientation: Tetrazolium assays rely on reduction of a dye to a coloured formazan, in cell work by metabolically active cells.

Take `O=C(O)CCCCCNc1c(F)c(F)c(C2=C3C=CC4=[N+]3[Ga-]35[n]6c2ccc6C(c2c(F)c(F)c(F)c(F)c2F)=c2ccc([n]23)=C(c2c(F)c(F)c(F)c(F)c2F)c2ccc4[n]25)c(F)c1F` (centres unmarked) [Complex 3]: the solubility in water entry in “solubility in water” is recorded as “easily solubilized in water”. In addition, the “activity against all NCI60 cell lines derived from nine tumor types” value in data set [1] is reported as “highly active”. Also, the average growth inhibition in data set [1] (NCI60 panel) was 70%. Moreover, in data set [2], the “time required to label >80% of cells from all four cancer lines” value was “up to 3 h”. Moreover, the “IC50 lower than Complex 2” value in data set [3] worked out at 10 fold.
